Assay [1] is described as follows: Late stage assay provider results from the probe development effort to identify selective inhibitors of heat shock protein 90 (HSP90): Absorbance-based cell proliferation assay in SKBR3 cells. The class given is functional. Particulars: SK-BR-3.
Assay [2] in a line: Late stage assay provider results from the probe development effort to identify selective inhibitors of heat shock protein 90 (HSP90): Absorbance-based cell proliferation assay in MCF7 cells. Format: functional.
The subject of assay [3] is HEK293. The experiment in a line: cells. Particulars: Homo sapiens.
Assay [4] deals with HEK293. As to the kind of experiment: cells. Particulars: Homo sapiens. The source holds these as a separate data set.
A short description of assay [5]: cytotoxicity in HeLa cells, dose response, cytotoxicity control, cell-based, plate reader, dry powder (AID 651946). Format: functional.
Assay [6] has as its target Protein Wnt-3a (Mus musculus, UniProt P27467). The experiment in a line: SAR analysis of small molecule antagonists of Gli-SUFU in a Wnt3a luminescent reporter assay. Format: functional. On the technique in general: Reporter assays use an easily measured gene product as a stand-in for the process of interest.
Assay [7] can be described thus: cells. Format: functional, cell-based.
Assay [8] concerns the target Nuclear receptor subfamily 0 group B member 1 (Homo sapiens, UniProt P51843). The class given is functional, cell-based.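 Further: HEK293T cells transfected with SF-1 and DAX-1 plus StAR promoter luciferase reporter.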
Assay [9] is described as follows: insulin promoter down-regulators in MIN6 cells, imaging, high-content screening, mouse beta cells (AID 1628). The class given is functional.
Assay [10] has as its system Streptococcus sp. 'group A'. The experiment in a line: growth inhibition of control SK(-) GAS strain, dose response, counter-screen for streptokinase expression inhibitor project, luminescence, kanamycin, BacTiterGlo, confirmation (AID 1900). The class given is functional, organism-based. In general terms: A counterscreen serves to expose hits that act by an unwanted route or on another target.

For assay [11], the system named is BJ. As to the kind of experiment: cytotoxicity toward BJ-TERT fibroblasts, dose response, cell-based, RAS-independent, luminescence (AID 1933). The class given is functional. Conditions: Homo sapiens.
The nature of assay [12]: cytotoxicity in MIN6 insulinoma cells, dose response, cytotoxicity control, cell-based, mouse insulinoma (AID 2122).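 Further: confirmatory high-throughput counterscreen run to flag cytotoxic compounds; mouse MIN-6 beta cells carrying an insulin promoter eGFP reporter.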 The class given is functional.
Assay [13] deals with Vero. The experiment in a line: host cell cytotoxicity of antiviral hits, dose response, cytotoxicity control for West Nile virus antiviral project, secondary assay (AID 1650). Conditions: Chlorocebus sabaeus. The class given is functional.
For assay [14], the system named is BJ. The experiment in a line: cells. The class given is functional, cell-based. Particulars: Homo sapiens.
Assay [15] relates to BJ. The experiment in a line: cytotoxicity toward BJ-TERT-LT-ST fibroblasts, dose response, cell-based, RAS-independent, luminescence (AID 1935).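 Further: BJ fibroblasts immortalized with TERT plus LT and ST oncogenes.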 Particulars: Homo sapiens. Format: functional.
A short description of assay [16]: cytotoxicity toward DRD oncogenic fibroblasts, dose response, cell-based, non-viral oncogenic, luminescence (AID 1934). Conditions: Homo sapiens. Format: functional.
Assay [17] concerns Streptococcus. The experiment in a line: Group A Streptococcus viability loss, dose response, counter-screen for streptokinase expression inhibitor project, luminescence, BacTiterGlo (AID 1915).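 Further: potency for reduction of bacterial viability or growth.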 Format: functional, organism-based.
Assay [18] deals with T1, Hexokinase HKDC1 (Homo sapiens, UniProt Q2TB90).
T1 sequence (Q2TB90 whole entry): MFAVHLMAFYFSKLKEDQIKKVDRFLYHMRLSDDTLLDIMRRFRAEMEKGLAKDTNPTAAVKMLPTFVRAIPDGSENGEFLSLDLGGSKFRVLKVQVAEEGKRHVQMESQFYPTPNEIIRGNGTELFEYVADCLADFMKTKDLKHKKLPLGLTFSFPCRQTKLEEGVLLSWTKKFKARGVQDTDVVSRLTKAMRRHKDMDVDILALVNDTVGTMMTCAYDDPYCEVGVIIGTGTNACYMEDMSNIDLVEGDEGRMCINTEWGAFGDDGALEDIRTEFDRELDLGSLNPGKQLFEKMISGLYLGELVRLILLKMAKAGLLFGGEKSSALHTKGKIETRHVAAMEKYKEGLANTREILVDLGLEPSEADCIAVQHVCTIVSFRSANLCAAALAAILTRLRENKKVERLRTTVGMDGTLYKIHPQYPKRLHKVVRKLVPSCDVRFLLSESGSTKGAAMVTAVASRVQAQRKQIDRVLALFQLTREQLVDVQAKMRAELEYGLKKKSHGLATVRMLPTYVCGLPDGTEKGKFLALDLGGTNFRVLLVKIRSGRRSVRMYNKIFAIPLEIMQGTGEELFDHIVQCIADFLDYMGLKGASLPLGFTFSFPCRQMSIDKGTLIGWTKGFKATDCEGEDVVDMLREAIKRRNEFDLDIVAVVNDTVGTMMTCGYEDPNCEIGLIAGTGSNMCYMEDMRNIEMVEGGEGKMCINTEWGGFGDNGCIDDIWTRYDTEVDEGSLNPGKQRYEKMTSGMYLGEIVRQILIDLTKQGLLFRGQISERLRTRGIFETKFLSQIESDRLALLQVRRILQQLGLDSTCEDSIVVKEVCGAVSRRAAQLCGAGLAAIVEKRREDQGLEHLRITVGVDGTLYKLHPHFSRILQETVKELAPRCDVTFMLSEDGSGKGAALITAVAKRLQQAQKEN
The experiment in a line: HKDC1 hexokinase activators, dose response, biochemical, W721R variant (AID 504730). The class given is functional.

The target in assay [19] is Nonstructural protein 1 (Influenza A virus, UniProt Q194T2). The class given is functional, Influenza A virus (A/California/07/2009(H1N1)).
The target in assay [20] is Hexokinase-1 (Homo sapiens, UniProt P19367). The experiment in a line: hexokinase 1 activators, dose response, selectivity assay for HKDC1 activator project, biochemical (AID 504762). Format: functional.
For assay [21], the target named is Heat shock protein HSP 90-alpha (Homo sapiens, UniProt P07900). Format: functional, organism-based.
For assay [22], the system named is BJ. As to the kind of experiment: cytotoxicity toward Ras-transformed BJeLR fibroblasts, dose response, cell-based, alamar blue fluorescence, cherrypicked samples (AID 2631).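 Further: confirmatory dose-response assay in RAS-dependent BJ fibroblasts engineered with TERT, LT and ST, with cytotoxicity read by fluorescence.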 The class given is functional. Particulars: Homo sapiens. A general note: Alamar Blue is a resazurin reagent that responds to reducing activity.
Assay [23] has as its system INS1. The experiment in a line: beta cell apoptosis inhibitors, cytokine rescue, dose response, luminescence, retest (AID 449756).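 Further: cell death triggered by IL-1 beta plus TNF-alpha plus IFN-gamma mixture; protective hits raise ATP signal compared with cytokine alone wells.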 Format: functional, cell-based. Particulars: Rattus norvegicus.
Assay [24] in a line: HepG2 cell cytotoxicity, dose response, cytotoxicity control, ATP luminescence, cherry-pick, activator set 2 (AID 1053143). Format: functional, cell-based.
Assay [25] is described as follows: Late stage assay provider results from the probe development effort to identify inhibitors of the Plasmodium falciparum M17 Leucine Aminopeptidase (M17LAP): radiolabel-based cell-based dose response assay to identify compounds that inhibit P. falciparum growth in RBCs Set 2. Format: functional.
Assay [26] can be described thus: human group III sPLA2 inhibitors, dose response, biochemical, QFRET, IC50 (AID 743457).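 Further: green fluorescence rise as the enzyme cleaves BODIPY PC-A2 in liposomes; potency for inhibition of the enzyme.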
Assay [27] deals with A549. The experiment in a line: A549 cell toxicity, dose response, cytotoxicity control, plate reader, cherry-pick samples (AID 687028). The class given is functional, cell-based. Conditions: Homo sapiens.

Calls of active or inactive are those of the source.

Protein Wnt-3a, sequence (P27467 whole entry): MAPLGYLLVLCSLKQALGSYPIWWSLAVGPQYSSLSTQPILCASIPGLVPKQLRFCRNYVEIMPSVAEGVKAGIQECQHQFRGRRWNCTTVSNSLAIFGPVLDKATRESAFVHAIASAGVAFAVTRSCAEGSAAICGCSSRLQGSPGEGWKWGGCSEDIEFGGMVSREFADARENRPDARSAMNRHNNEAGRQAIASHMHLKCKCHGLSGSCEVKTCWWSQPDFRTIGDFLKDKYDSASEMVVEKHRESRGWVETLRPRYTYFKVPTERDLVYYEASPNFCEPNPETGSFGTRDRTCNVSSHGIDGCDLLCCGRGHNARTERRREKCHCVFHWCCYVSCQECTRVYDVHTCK
Nonstructural protein 1, sequence (Q194T2 whole entry): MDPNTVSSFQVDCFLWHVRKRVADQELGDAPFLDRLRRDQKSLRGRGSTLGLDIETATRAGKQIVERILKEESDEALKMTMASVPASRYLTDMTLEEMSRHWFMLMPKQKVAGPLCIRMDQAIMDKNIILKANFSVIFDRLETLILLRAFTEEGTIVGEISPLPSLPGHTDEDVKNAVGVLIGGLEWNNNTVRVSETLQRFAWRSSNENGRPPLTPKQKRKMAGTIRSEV
Hexokinase-1, sequence (P19367 whole entry): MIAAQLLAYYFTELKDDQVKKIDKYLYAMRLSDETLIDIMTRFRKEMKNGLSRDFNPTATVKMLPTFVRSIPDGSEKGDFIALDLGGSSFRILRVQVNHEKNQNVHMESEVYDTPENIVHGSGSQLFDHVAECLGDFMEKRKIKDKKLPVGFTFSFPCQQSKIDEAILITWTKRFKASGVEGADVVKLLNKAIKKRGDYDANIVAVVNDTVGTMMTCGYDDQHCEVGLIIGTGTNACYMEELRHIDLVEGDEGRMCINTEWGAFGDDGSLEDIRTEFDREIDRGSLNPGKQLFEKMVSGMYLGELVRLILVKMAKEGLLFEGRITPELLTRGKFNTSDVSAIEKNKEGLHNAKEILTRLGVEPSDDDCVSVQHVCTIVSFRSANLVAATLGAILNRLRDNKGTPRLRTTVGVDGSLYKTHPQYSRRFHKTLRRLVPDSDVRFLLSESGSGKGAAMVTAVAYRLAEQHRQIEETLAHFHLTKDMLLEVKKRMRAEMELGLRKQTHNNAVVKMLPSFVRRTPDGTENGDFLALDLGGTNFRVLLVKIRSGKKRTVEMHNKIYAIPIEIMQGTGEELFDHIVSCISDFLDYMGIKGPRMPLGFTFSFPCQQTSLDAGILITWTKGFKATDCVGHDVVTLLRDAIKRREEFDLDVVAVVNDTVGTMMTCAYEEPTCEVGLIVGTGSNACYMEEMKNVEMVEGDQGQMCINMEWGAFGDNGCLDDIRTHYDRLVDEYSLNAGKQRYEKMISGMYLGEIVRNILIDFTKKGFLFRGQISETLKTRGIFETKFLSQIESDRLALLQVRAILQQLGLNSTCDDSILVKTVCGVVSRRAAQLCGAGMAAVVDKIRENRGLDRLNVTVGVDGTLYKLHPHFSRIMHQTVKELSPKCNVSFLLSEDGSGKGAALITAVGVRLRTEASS
Nuclear receptor subfamily 0 group B member 1, sequence (P51843 whole entry): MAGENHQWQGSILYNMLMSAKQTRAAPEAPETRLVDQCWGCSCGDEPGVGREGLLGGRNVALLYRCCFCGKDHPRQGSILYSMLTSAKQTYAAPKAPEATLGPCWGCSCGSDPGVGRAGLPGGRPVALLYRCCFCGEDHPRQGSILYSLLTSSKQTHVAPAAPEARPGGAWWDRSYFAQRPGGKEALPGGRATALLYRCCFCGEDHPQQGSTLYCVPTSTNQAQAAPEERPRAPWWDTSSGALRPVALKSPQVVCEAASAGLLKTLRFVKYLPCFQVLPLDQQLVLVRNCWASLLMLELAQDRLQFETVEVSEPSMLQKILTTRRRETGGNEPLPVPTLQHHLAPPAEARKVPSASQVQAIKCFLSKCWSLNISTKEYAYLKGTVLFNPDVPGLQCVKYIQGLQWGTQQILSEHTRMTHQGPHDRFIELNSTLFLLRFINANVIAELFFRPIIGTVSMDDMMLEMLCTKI

Usually IC50 stands for the point on the concentration scale where inhibition reaches its midpoint. The EC50 is the concentration at which the effect is half-maximal. Consider `O=C(NCCc1ccc(F)cc1)c1coc(=O)c(Br)c1`, for which the IC50 was 5.3 µM (active) in assay [1] and 2.1 µM (active) in assay [2]. Also, the EC50 in assay [3] and in assay [4] was > 59.7 µM (inactive) throughout.
As usually defined, the AC50 is the concentration at which the activity in the assay is half-maximal. In the case of `FC(F)(F)Oc1ccccc1CSc1nnc(-c2ccccc2)o1`, the AC50 in assay [5] is > 52 µM (inactive).
Regarding `COc1ccccc1C(=O)Nc1cc(N2CCCCC2)ncn1`, the IC50 in assay [6] was > 21.8 µM (inactive).
`O=C(COc1ccccc1)Nc1cccc(-c2ccc(N3CCOCC3)nn2)c1`: the IC50 in [7] and in [8] was > 67.5 µM (inactive) in each case.
As usually defined, the CC50 is the concentration giving 50% cytotoxicity. With `CC(C)(C)c1nnc(N/N=C/c2cc(Br)ccc2O)n(N)c1=O`, the IC50 in [9] was 1.81 µM (active); in assay [12], 2.08 µM (active); in assay [19], 16.6 µM (active). Moreover, the EC50 is 2.91 µM (active) in assay [10]; 681 nM (active) in [11]; 3.69 µM (inconclusive) in [14]; 706 nM (inconclusive) in assay [15]; 1.01 µM (active) in assay [16]; 3.18 µM (active) in [17]. The results for the EC50 in [18], in [20] and in assay [22] were 19.9 µM (active), > 80 µM (inactive) and 1.24 µM (active), respectively. The CC50 in assay [13] is 5 µM (active). Also, the AC50 in assay [21] is 5.57 µM (active); in assay [23] it was 859 nM (active); in [24], 5.77 µM (active).
For `O=C(NO)c1ccc2ccccc2c1`, the IC50 in [25] was 15.7 µM (inactive).
Regarding `O=C1C(=O)N(Cc2ccc(-c3ccccc3)cc2)c2ccc(OC(F)(F)F)cc21`, the IC50 in [26] was 32 µM (inactive).
`CCN(c1ccccc1)S(=O)(=O)c1ccc(OC)c(NC(=O)C2CCC2)c1`: the AC50 in [27] is 35.7 µM (active).

The record behind these values is ChEMBL document CHEMBL1201862, “PubChem BioAssay data set” (2004).
